Consider 15 molecules from patent publication US9187471B2, “Pyrido [4,3-b] indole and pyrido [3,4-b] indole derivatives and methods of use” (Medivation Technologies, Inc., priority 2010, dated 2015).

Molecules are shown by their SMILES.

Test [1] deals with T1, human recombinant serotonin (5-Hydroxytryptamine) 5-HT2C receptor (Homo sapiens, UniProt P28335).
T1 construct: expressed in transfected cells; host or cells: CHO-K1
T1 sequence (P28335 33-458): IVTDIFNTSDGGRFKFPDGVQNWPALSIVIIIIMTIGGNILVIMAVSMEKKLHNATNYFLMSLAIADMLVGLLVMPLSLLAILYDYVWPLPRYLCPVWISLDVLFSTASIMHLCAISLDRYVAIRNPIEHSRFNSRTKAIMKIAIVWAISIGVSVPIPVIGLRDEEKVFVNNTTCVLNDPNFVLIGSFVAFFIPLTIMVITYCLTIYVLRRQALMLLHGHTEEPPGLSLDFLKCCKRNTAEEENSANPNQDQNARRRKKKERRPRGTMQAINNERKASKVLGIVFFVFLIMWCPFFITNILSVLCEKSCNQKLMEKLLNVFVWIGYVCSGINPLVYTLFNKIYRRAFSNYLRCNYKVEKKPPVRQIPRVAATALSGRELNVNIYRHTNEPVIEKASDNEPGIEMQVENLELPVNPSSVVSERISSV
In words: Serotonin 5-HT2C radioligand binding ([3H]Mesulergine). The settings on record: compound at 0.1 μM; read-out: Inhibition of ligand binding, Serotonin 5-HT2C (percent inhibition of specific binding). The procedure: Compounds of the invention were incubated with 1 nM [^3H]Mesulergine for 60 min at 25° C. Non-specific binding was estimated in the presence of 1 μM Mianserin. Receptor proteins were filtered and washed, the filters were then counted to determine [^3H]Mesulergine specifically bound.

Test [2] concerns the target T2, human recombinant serotonin (5-Hydroxytryptamine) 5-HT2A receptor (Homo sapiens, UniProt P28223).
T2 construct: expressed in transfected cells; host or cells: CHO-K1
The experiment in a line: Serotonin 5-HT2A radioligand binding ([3H]Ketanserin). As to conditions: compound at 0.1 μM; read-out: Inhibition of ligand binding, Serotonin 5-HT2A (percent inhibition of specific binding). The procedure: Compounds of the invention were incubated with 0.5 nM [^3H]Ketanserin for 60 min at 25° C. Non-specific binding was estimated in the presence of 1 μM Mianserin. Receptor proteins were filtered and washed, the filters were then counted to determine [^3H]Ketanserin specifically bound.

The target of test [3] is T3, human recombinant histamine H1 receptor (Homo sapiens, UniProt P35367).
T3 construct: expressed in transfected cells; host or cells: CHO-K1
T3 sequence (P35367 whole entry): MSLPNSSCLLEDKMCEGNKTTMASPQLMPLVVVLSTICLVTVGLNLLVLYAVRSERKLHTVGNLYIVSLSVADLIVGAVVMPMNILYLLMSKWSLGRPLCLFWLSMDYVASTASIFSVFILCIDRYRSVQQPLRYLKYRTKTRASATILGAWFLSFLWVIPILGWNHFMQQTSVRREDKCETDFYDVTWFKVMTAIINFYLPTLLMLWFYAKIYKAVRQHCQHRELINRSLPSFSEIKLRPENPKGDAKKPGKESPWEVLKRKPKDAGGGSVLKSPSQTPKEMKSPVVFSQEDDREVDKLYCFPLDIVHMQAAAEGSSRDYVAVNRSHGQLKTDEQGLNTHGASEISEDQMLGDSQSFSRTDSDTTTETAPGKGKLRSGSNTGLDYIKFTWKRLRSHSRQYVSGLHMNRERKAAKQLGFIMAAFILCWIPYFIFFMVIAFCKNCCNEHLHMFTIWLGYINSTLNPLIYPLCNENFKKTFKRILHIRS
In words: Histamine H1 radioligand binding ([3H]Pyrilamine). As to conditions: read-out: Histamine H1 Binding (1 μM), percent inhibition of specific binding; compound at 1 μM; 1.2 nM [3H]Pyrilamine. An outline of the steps: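 Results expressed as percent inhibition of specific [3H]pyrilamine binding, counted on filters after washing. Receptor source: CHO-K1 cells expressing recombinant human H1, in modified Tris-HCl buffer (50 mM, pH 7.4; 2 mM MgCl2, 100 mM NaCl, 250 mM sucrose). 1 μM pyrilamine defined non-specific binding.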

Test [4] has as its target T4, human recombinant serotonin (5-Hydroxytryptamine) 5-HT6 receptor (Homo sapiens, UniProt P50406).
T4 construct: expressed in transfected cells; host or cells: HeLa
In words: Serotonin 5-HT6 radioligand binding ([3H]LSD). As to conditions: compound at 0.1 μM; read-out: Inhibition of ligand binding, Serotonin 5-HT6 (percent inhibition of specific binding). The text has this:
Receptor proteins were filtered and washed, the filters were then counted to determine [3H]LSD specifically bound.

For test [5], the target named is T5, human recombinant serotonin (5-Hydroxytryptamine) 5-HT5A receptor (Homo sapiens, UniProt P47898).
T5 construct: expressed in transfected cells; host or cells: CHO-K1
T5 sequence (P47898 whole entry): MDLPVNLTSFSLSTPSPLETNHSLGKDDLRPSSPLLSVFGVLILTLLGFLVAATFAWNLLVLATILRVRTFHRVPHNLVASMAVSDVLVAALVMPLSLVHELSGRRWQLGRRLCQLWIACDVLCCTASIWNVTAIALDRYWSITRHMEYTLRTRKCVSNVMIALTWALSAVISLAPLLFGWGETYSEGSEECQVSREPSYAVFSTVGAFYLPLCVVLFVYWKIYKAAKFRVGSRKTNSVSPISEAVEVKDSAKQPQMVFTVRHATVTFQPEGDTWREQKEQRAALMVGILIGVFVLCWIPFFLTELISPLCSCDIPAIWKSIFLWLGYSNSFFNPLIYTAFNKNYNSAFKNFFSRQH
In words: Serotonin 5-HT5A radioligand binding ([3H]LSD). The settings on record: compound at 0.1 μM; read-out: Inhibition of ligand binding, Serotonin 5-HT5A (percent inhibition of specific binding). The procedure: Compounds of the invention were incubated with 1.7 nM [^3H]Lysergic acid diethylamide (LSD) for 60 min at 37° C. […] Receptor proteins were filtered and washed, the filters were counted to determine [^3H]LSD specifically bound.

In test [6] the target is T6, rat adrenergic α1A receptor (Rattus norvegicus, UniProt P43140).
T6 construct: rat adrenergic α1A receptor obtained from Wistar Rat submaxillary glands; from tissue; host or cells: Wistar rat submaxillary glands
T6 sequence (P43140 1-466): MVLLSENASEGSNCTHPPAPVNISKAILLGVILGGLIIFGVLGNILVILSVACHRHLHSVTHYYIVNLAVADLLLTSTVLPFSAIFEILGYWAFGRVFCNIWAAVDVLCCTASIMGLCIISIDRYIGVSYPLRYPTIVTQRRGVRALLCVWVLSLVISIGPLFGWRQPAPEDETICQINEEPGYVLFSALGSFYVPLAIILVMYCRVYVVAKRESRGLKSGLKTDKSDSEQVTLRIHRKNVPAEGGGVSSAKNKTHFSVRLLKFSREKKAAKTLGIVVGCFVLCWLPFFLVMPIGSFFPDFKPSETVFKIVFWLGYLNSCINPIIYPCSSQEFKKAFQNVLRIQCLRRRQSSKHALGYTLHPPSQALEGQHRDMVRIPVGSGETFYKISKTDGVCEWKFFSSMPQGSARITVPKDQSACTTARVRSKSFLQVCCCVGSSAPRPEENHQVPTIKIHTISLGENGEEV
In words: Adrenergic α1A radioligand binding ([3H]Prazosin). The settings on record: read-out: Adrenergic (0.1 μM) a1A, percent inhibition of specific binding; compound at 0.1 μM; 0.25 nM [3H]Prazosin. An outline of the steps: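 Wistar rat submaxillary gland receptor in 50 mM Tris-HCl pH 7.4 with 0.5 mM EDTA, incubated with compound and 0.25 nM [3H]Prazosin for 60 min at 25 °C.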

T4 sequence (P50406 whole entry): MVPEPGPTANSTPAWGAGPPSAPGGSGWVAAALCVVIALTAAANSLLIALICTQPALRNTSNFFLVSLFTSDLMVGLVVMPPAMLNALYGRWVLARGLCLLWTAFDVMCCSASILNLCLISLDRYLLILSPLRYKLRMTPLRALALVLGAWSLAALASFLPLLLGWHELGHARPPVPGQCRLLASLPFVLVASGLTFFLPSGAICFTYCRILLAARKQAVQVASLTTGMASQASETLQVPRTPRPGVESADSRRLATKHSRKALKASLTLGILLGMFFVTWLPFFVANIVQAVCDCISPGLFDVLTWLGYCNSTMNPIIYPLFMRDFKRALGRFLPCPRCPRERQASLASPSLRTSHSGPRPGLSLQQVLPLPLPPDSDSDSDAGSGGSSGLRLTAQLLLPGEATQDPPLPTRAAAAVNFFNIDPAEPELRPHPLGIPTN
T2 sequence (P28223 whole entry): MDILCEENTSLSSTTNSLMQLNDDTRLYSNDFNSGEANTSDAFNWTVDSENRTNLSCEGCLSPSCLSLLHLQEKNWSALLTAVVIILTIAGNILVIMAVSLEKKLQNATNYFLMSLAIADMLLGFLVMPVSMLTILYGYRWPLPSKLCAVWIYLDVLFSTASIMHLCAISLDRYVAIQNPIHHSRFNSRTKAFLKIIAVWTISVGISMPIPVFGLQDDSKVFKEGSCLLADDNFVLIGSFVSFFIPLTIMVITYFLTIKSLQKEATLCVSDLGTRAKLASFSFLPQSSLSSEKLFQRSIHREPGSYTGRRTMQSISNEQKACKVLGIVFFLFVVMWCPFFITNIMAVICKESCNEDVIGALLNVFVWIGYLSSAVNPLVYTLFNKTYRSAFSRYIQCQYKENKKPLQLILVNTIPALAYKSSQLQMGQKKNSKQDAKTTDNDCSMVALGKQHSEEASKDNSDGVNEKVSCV

The inhibition is the relative decrease from the control value, in per cent. As to `Cc1ccc2c(c1)c1c(n2-c2cccc(-c3ccc(S(C)(=O)=O)cc3)c2)CCN(C)C1` [Compound No. 131, 2,8-dimethyl-5-(4′-(methylsulfonyl)biphenyl-3-yl)-2,3,4,5-tetrahydro-1H-pyrido[4,3-b]indole], the inhibition at 0.1 µM in test [1] is -6%; in test [2] it was 74%; in test [4], -3%; in test [5], 19%; in test [6] it was 0%. Moreover, the inhibition at 1 µM in test [3] came to 20%.
As to `Cc1ccc2c(c1)c1c(n2-c2cscc2-c2cc3ccccc3s2)CCN(C)C1` [Compound No. 151], the inhibition at 0.1 µM in test [1] worked out at 47%; in test [2], 32%; in test [4], 28%; in test [5], 102%; in test [6], 64%. Besides, the inhibition at 1 µM in test [3] worked out at 11%.
On to `Cc1ccc2c(c1)c1c(n2-c2cscc2-c2ccnn2C)CCN(C)C1` [Compound No. 150], for which the inhibition at 0.1 µM came to 64% in test [1]; 53% in test [2]; 14% in test [4]; 65% in test [5]; 36% in test [6]. In test [3], the inhibition at 1 µM was found to be 22%.
In the case of `Cc1ccc2c(c1)c1c(n2-c2ccccc2-c2ccc3c(ccn3C)c2)CCN(C)C1` [Compound No. 85, 2,8-dimethyl-5-(2-(1-methyl-1H-indol-5-yl)phenyl)-2,3,4,5-tetrahydro-1H-pyrido[4,3-b]indole], the inhibition at 0.1 µM in test [1] amounted to 50%; in test [2], 49%; in test [4], 49%; in test [5], 50%; in test [6] it was 24%. In test [3], the inhibition at 1 µM is 8%.
Turning to `Cc1ccc2c(c1)c1c(n2-c2cccc(-c3ccc4c(ccn4C)c3)c2)CCN(C)C1` [Compound 53, 2,8-dimethyl-5-(3-(1-methyl-1H-indol-5-yl)phenyl)-2,3,4,5-tetrahydro-1H-pyrido[4,3-b]indole], the inhibition at 0.1 µM in test [1] was 47%; in test [2] it was 89%; in test [4], 11%; in test [5] it was 11%; in test [6], -11%. Further, the inhibition at 1 µM in test [3] was determined as 18%.
In the case of `Cc1ccc2c(c1)c1c(n2-c2cccc(-c3ccc(C)s3)c2)CCN(C)C1` [Compound No. 64, 2,8-dimethyl-5-(3-(5-methylthiophen-2-yl)phenyl)-2,3,4,5-tetrahydro-1H-pyrido[4,3-b]indole], the inhibition at 0.1 µM in test [1] was 83%; in test [2], 102%; in test [4], -3%; in test [5], 30%; in test [6], -8%. Besides, in test [3], the inhibition at 1 µM worked out at 23%.
Take `CNC(=O)c1cccc(-c2cscc2-n2c3c(c4cc(C)ccc42)CN(C)CC3)c1` [Compound No. 154]: the inhibition at 0.1 µM in test [1] was 67%; in test [2] it was 83%; in test [4], 7%; in test [5], 85%; in test [6], 28%. Further, the inhibition at 1 µM in test [3] is 20%.
For `Cc1ccc2c(c1)c1c(n2-c2cccc(-c3cn[nH]c3)c2)CCN(C)C1` [Compound No. 70, 5-(3-(1H-pyrazol-4-yl)phenyl)-2,8-dimethyl-2,3,4,5-tetrahydro-1H-pyrido[4,3-b]indole], the inhibition at 0.1 µM in test [1] stood at 81%; in test [2] it was 98%; in test [4], 0%; in test [5], 43%; in test [6], 5%. In addition, the inhibition at 1 µM in test [3] came out at 8%.
On to `Cc1ccc2c(c1)c1c(n2-c2ccccc2-c2c(C)noc2C)CCN(C)C1` [Compound No. 82, 4-(2-(2,8-dimethyl-3,4-dihydro-1H-pyrido[4,3-b]indol-5(2H)-yl)phenyl)-3,5-dimethylisoxazole], for which the inhibition at 0.1 µM in test [1] is 68%; in test [2], 73%; in test [4], 14%; in test [5], 9%; in test [6], 3%. The inhibition at 1 µM in test [3] was determined as 18%.
`CNC(=O)c1cccc(-c2ccc(-n3c4c(c5cc(C)ccc53)CN(C)CC4)nc2)c1` [Compound No. 143, 3-(6-(2,8-dimethyl-3,4-dihydro-1H-pyrido[4,3-b]indol-5(2H)-yl)pyridin-3-yl)-N-methylbenzamide]: the inhibition at 0.1 µM in test [1] is 44%; in test [2], 55%; in test [4], -8%; in test [5], 17%; in test [6] it was 32%. The inhibition at 1 µM in test [3] was 8%.
With `Cc1ccc2c(c1)c1c(n2-c2cscc2-c2cccc3[nH]ncc23)CCN(C)C1` [Compound 41], the inhibition at 0.1 µM in test [1] stood at 91%; in test [2] it was 84%; in test [4], 36%; in test [5], 94%; in test [6] it was 59%. The inhibition at 1 µM in test [3] worked out at 28%.
For `Cc1ccc2c(c1)c1c(n2-c2ccc(-c3ccc4c(ccn4C)c3)cn2)CCN(C)C1` [Compound No. 136, 2,8-dimethyl-5-(5-(1-methyl-1H-indol-5-yl)pyridin-2-yl)-2,3,4,5-tetrahydro-1H-pyrido[4,3-b]indole], the inhibition at 0.1 µM was 101% in test [1]; 98% in test [2]; 10% in test [4]; 50% in test [5]; 20% in test [6]. The inhibition at 1 µM in test [3] amounted to 5%.
Take `CNC(=O)c1ccc(-c2cscc2-n2c3c(c4cc(C)ccc42)CN(C)CC3)cc1` [Compound No. 155]: the inhibition at 0.1 µM in test [1] is 31%; in test [2], 27%; in test [4] it was -6%; in test [5] it was 69%; in test [6] it was 80%. In addition, in test [3], the inhibition at 1 µM came to 10%.
In the case of `Cc1ccc2c(c1)c1c(n2-c2cccc(-c3sccc3C)c2)CCN(C)C1` [Compound 43, 2,8-dimethyl-5-(3-(3-methylthiophen-2-yl)phenyl)-2,3,4,5-tetrahydro-1H-pyrido[4,3-b]indole], the inhibition at 0.1 µM in test [1] is 8%; in test [2] it was 102%; in test [4] it was 28%; in test [5], 39%; in test [6], 13%. For the same molecule, the inhibition at 1 µM in test [3] is 26%.
With `Cc1ccc2c(c1)c1c(n2-c2cscc2-c2ccc(S(C)(=O)=O)cc2)CCN(C)C1` [Compound No. 76], the inhibition at 0.1 µM in test [1] was found to be 24%; in test [2], 30%; in test [4] it was 14%; in test [5], 90%; in test [6], 82%. For the same molecule, the inhibition at 1 µM in test [3] was found to be 19%.
